Experiment [1] concerns the target T1, human orexin-1 receptor (hOX1R) (Homo sapiens, UniProt O43613).
T1 construct: expressed in transfected cells; host or cells: Chinese hamster ovary (CHO) cells, grown under G418 selection
T1 sequence (O43613 1-425): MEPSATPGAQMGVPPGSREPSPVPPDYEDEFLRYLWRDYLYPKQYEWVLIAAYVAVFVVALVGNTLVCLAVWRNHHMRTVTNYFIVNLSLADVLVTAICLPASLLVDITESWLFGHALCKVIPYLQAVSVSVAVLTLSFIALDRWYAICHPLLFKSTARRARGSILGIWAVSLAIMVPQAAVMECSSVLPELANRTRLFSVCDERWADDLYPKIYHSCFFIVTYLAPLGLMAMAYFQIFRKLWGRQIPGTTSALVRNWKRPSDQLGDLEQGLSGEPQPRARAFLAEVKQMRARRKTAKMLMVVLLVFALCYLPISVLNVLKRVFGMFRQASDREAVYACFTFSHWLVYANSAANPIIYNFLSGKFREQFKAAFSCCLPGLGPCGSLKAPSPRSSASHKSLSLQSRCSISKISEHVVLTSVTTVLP
Description: FLIPR Ca2+ Flux Assay, CHO cells expressing hOX1R. The class given is cell-based. The note with it: agonist 70 pM Ala-6,12 orexin-A. The procedure:
(§1) Chinese hamster ovary (CHO) cells expressing the human orexin-1 receptor (hOX1R) or the human orexin-2 receptor (hOX2R) were grown in Iscove's modified DMEM containing 2 mM L-glutamine, […], 1% hypoxanthine-thymidine supplement, 100 U/ml penicillin, 100 μg/ml streptomycin and 10% heat-inactivated fetal calf serum (FCS). The cells were seeded at 20,000 cells/well into Becton-Dickinson black 384-well clear bottom sterile plates coated with poly-D-lysine. All reagents were from GIBCO-Invitrogen Corp. The seeded plates were incubated overnight at 37° C. and 5% CO2. Ala-6,12 human orexin-A, used as the agonist, was prepared as a 1 mM stock solution in 1% bovine serum albumin (BSA) and diluted in assay buffer (HBSS containing 20 mM HEPES, 0.1% BSA and 2.5 mM probenecid, pH7.4) for use in the assay at a final concentration of 70 pM. Test compounds were prepared as 10 mM stock solution in DMSO, then diluted in 384-well plates, first in DMSO, then assay buffer.
On the day of the assay, cells were washed 3× with 100 μl assay buffer and then incubated for 60 minutes (37° C., 5% CO2) in 60 μl assay buffer containing 1 μM Fluo-4AM ester, 0.02% pluronic acid, and 1% BSA. The dye loading solution was then aspirated and cells were washed 3× with 100 μl assay buffer. 30 μl of that same buffer was left in each well. Within the Fluorescent Imaging Plate Reader (FLIPR, Molecular Devices), test compounds were added to the plate in a volume of 25 μl, incubated for 5 minutes, and then 25 μl of agonist was added. Fluorescence was measured for each well at 1 second intervals for 5 minutes, and the height of each fluorescence peak was compared to the height of the fluorescence peak induced by 70 pM of Ala-6,12 orexin-A with buffer in place of test compound.

The target in experiment [2] is T2, human orexin-2 receptor (hOX2R) (Homo sapiens, UniProt O43614).
T2 construct: expressed in transfected cells; host or cells: Chinese hamster ovary (CHO) cells, grown under G418 selection
T2 sequence (O43614 1-444): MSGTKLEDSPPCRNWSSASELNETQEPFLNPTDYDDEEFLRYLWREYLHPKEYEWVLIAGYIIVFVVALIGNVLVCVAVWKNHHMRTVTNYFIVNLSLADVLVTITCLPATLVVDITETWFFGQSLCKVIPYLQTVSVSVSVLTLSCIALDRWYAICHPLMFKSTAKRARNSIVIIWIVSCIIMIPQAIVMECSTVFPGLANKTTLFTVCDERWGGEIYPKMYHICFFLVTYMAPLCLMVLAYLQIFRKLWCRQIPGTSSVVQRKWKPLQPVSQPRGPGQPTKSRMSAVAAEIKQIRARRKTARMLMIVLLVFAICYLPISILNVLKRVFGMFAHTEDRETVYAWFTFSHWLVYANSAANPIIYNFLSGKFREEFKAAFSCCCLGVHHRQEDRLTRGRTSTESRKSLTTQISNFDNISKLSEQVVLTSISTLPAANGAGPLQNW
Description: FLIPR Ca2+ Flux Assay, CHO cells expressing hOX2R. The note with it: agonist 70 pM Ala-6,12 orexin-A. It is filed as cell-based. The procedure: The utility of the compounds in accordance with the present invention as orexin receptor OX1R and/or OX2R antagonists may be readily determined without undue experimentation by methodology well known in the art, including the “FLIPR Ca^2+ Flux Assay” (Okumura et al., Biochem. Biophys. Res. Comm. 280:976-981, 2001). In a typical experiment the OX1 and OX2 receptor antagonistic activity of the compounds of the present invention was determined in accordance with the following experimental method. For intracellular calcium measurements, Chinese hamster ovary (CHO) cells expressing the rat orexin-1 receptor or the human orexin-2 receptor, are grown in Iscove's modified DMEM containing 2 mM L-glutamine, […], 1% hypoxanthine-thymidine supplement, 100 U/ml penicillin, 100 μg/ml streptomycin and 10% heat-inactivated fetal calf serum (FCS). The cells are seeded at 20,000 cells/well into Becton-Dickinson black 384-well clear bottom sterile plates coated with poly-D-lysine. All reagents were from GIBCO-Invitrogen Corp. The seeded plates are incubated overnight at 37° C. and 5% CO2. Ala-6,12 human orexin-A as the agonist is prepared as a 1 mM stock solution in 1% bovine serum albumin (BSA) and diluted in assay buffer (HBSS containing 20 mM HEPES, 0.1% BSA and 2.5 mM probenecid, pH7.4) for use in the assay at a final concentration of 70 pM. Test compounds are prepared as 10 mM stock solution in DMSO, then diluted in 384-well plates, first in DMSO, then assay buffer. On the day of the assay, cells are washed 3 times with 100 μl assay buffer and then incubated for 60 min (37° C., 5% CO2) in 60 μl assay buffer containing 1 μM Fluo-4AM ester, 0.02% pluronic acid, and 1% BSA. The dye loading solution is then aspirated and cells are washed 3 times with 100 μl assay buffer. 30 μl of that same buffer is left in each well. Within the Fluorescent Imaging Plate Reader (FLIPR, Molecular Devices), test compounds are added to the plate in a volume of 25 μl, incubated for 5 min and finally 25 μl of agonist is added. Fluorescence is measured for each well at 1 second intervals for 5 minutes and the height of each fluorescence peak is compared to the height of the fluorescence peak induced by 70 pM Ala-6,12 orexin-A with buffer in place of antagonist. For each antagonist, IC50 value (the concentration of compound needed to inhibit 50% of the agonist response) is determined. Alternatively, compound potency can be assessed by a radioligand binding assay (described in Bergman et. al. Bioorg. Med. Chem. Lett. 2008, 18, 1425-1430) in which the inhibition constant (Ki) is determined in membranes prepared from CHO cells expressing either the OX1 or OX2 receptor. The intrinsic orexin receptor antagonist activity of a compound which may be used in the present invention may be determined by these assays.
as §1, with “buffer. […]” for “buffer.”
(A change in cytosolic calcium serves as a functional read-out for many receptors and channels.)

Among the data in patent US20160102073A1, “2-HYDROXYMETHYL-SUBSTITUTED OREXIN RECEPTOR ANTAGONISTS” (MERCK SHARP & DOHME CORP., priority 2013, published 2016) are IC50 values, retold here.

The term IC50 denotes the concentration that inhibits the measured activity by half. A high value points to a need for much substance.

`COc1ccnc(O[C@@H]2CC[C@@H](C)N(C(=O)c3ccccc3-n3nccn3)C2)c1C(C)(C)O` (single isomer, unassigned) [Example 28]: the IC50 in experiment [1] is 93 nM; in experiment [2], 80 nM.

Take `C[C@@H]1CC[C@@H](Oc2ncccc2C(C)(C)O)CN1C(=O)c1ccccc1-n1nccn1` [Example 1, 2-(2-{[(3R,6R)-6-Methyl-1-{[2-(2H-1,2,3-triazol-2-yl)phenyl]carbonyl}piperidin-3-yl]oxy}pyridin-3-yl)propan-2-ol]: the IC50 in experiment [1] amounted to 44.5 nM; in experiment [2] it was 30 nM.

For the molecule `C[C@@H]1CC[C@@H](Oc2ncccc2C(C)(C)O)CN1C(=O)c1cc(CF)ccc1-n1nccn1` [Example 2, 2-(2-{[(3R,6R)-1-{[5-(Fluoromethyl)-2-(2H-1,2,3-triazol-2-yl)phenyl]carbonyl}-6-methylpiperidin-3-yl]oxy}pyridin-3-yl)propan-2-ol], the IC50 was determined as 30 nM in experiment [1] and 11 nM in experiment [2].

As to `C[C@@H]1CC[C@@H](Oc2ncccc2C(C)(C)O)CN1C(=O)c1cccc(F)c1-n1nccn1` [Example 3, 2-(2-{[(3R,6R)-1-{[3-fluoro-2-(2H-1,2,3-triazol-2-yl)phenyl]carbonyl}-6-methylpiperidin-3-yl]oxy}pyridin-3-yl)propan-2-ol], the values for the IC50 in experiment [1] and in experiment [2] were 189 nM and 35 nM, respectively.

As for `C[C@@H]1CC[C@@H](Oc2ncccc2C(C)(C)O)CN1C(=O)c1ccc(F)cc1-n1nccn1` [Example 4, 2-(2-{[(3R,6R)-1-{[4-fluoro-2-(2H-1,2,3-triazol-2-yl)phenyl]carbonyl}-6-methylpiperidin-3-yl]oxy}pyridin-3-yl)propan-2-ol], the values for the IC50 in experiment [1] and in experiment [2] were 425 nM and 68 nM, respectively.

Consider `C[C@@H]1CC[C@@H](Oc2ncccc2C(C)(C)O)CN1C(=O)c1cc(F)ccc1-n1nccn1` [Example 5, 2-(2-{[(3R,6R)-1-{[5-fluoro-2-(2H-1,2,3-triazol-2-yl)phenyl]carbonyl}-6-methylpiperidin-3-yl]oxy}pyridin-3-yl)propan-2-ol], for which the IC50 worked out at 121 nM in experiment [1] and 34 nM in experiment [2].

As for `C[C@@H]1CC[C@@H](Oc2ncccc2C(C)(C)O)CN1C(=O)c1cc(Cl)ccc1-n1nccn1` [Example 6, 2-(2-{[(3R,6R)-1-{[5-chloro-2-(2H-1,2,3-triazol-2-yl)phenyl]carbonyl}-6-methylpiperidin-3-yl]oxy}pyridin-3-yl)propan-2-ol], the 50% inhibitory concentration (IC50) is 141 nM in experiment [1] and 66 nM in experiment [2].

For `C[C@@H]1CC[C@@H](Oc2ncccc2C(C)(C)O)CN1C(=O)c1cc(C#N)ccc1-n1nccn1` [Example 7, 3-{[(2R,5R)-5-{[3-(1-hydroxy-1-methylethyl)pyridin-2-yl]oxy}-2-methylpiperidin-1-yl]carbonyl}-4-(2H-1,2,3-triazol-2-yl)benzonitrile], the figures for the half-maximal inhibitory concentration (IC50) in experiment [1] and in experiment [2] were 418 nM and 88 nM, respectively.

With `C[C@@H]1CC[C@@H](Oc2ncccc2C(C)(C)O)CN1C(=O)c1ccccc1-c1ccccc1` [Example 8, 2-(2-{[(3R,6R)-1-(biphenyl-2-ylcarbonyl)-6-methylpiperidin-3-yl]oxy}pyridin-3-yl)propan-2-ol], the half-inhibitory concentration (IC50) in experiment [1] came to 124 nM; in experiment [2] it was 70 nM.

Consider `C[C@@H]1CC[C@@H](Oc2ncccc2C(C)(C)O)CN1C(=O)c1ccccc1C1CCC1` [Example 9, 2-[2-({(3R,6R)-1-[(2-cyclobutylphenyl)carbonyl]-6-methylpiperidin-3-yl}oxy)pyridin-3-yl]propan-2-ol], for which the figures for the IC50 in experiment [1] and in experiment [2] were 89 nM and 54 nM, respectively.

In the case of `COc1ccc(C(=O)N2C[C@H](Oc3ncccc3C(C)(C)O)CC[C@H]2C)c(-c2ccccc2)n1` [Example 10, 2-[2-({(3R,6R)-1-[(6-methoxy-2-phenylpyridin-3-yl)carbonyl]-6-methylpiperidin-3-yl}oxy)pyridin-3-yl]propan-2-ol], the IC50 worked out at 435 nM in experiment [1] and 157 nM in experiment [2].

Consider `C[C@@H]1CC[C@@H](Oc2ncccc2C(C)(C)O)CN1C(=O)c1sccc1-n1nccn1` [Example 11, 2-(2-{[(3R,6R)-6-methyl-1-{[3-(2H-1,2,3-triazol-2-yl)thiophen-2-yl]carbonyl}piperidin-3-yl]oxy}pyridin-3-yl)propan-2-ol], for which the concentration for half-maximal inhibition (IC50) in experiment [1] came out at 148 nM; in experiment [2] it was 41 nM.

Turning to `C[C@@H]1CC[C@@H](Oc2ncccc2C(C)(C)O)CN1C(=O)c1ccccc1N1CCCC1` [Example 12, 2-[2-({(3R,6R)-6-methyl-1-[(2-pyrrolidin-1-ylphenyl)carbonyl]piperidin-3-yl}oxy)pyridin-3-yl]propan-2-ol], the figures for the IC50 in experiment [1] and in experiment [2] were 265 nM and 104 nM, respectively.

For the molecule `C[C@@H]1CC[C@@H](Oc2ncccc2C(C)(C)O)CN1C(=O)c1ccccc1C1CC1` [Example 13, 2-[2-({(3R,6R)-1-[(2-cyclopropylphenyl)carbonyl]-6-methylpiperidin-3-yl}oxy)pyridin-3-yl]propan-2-ol], the 50% inhibitory concentration (IC50) in experiment [1] is 94 nM; in experiment [2], 34 nM.
